Test [1] concerns S. aureus ATCC 10390. Description: MIC determination with authentic compounds resynthesized in solution. In kind it is cell-based, Staphylococcus aureus. The conditions noted are these: for MIC: Staphylococcus aureus, ATCC10390. The procedure:
For estimated MIC determination, DMSO was added to the dried compound residue obtained from a single spot to afford ca. 100 μL of a 2 mM stock solution. Aliquots (5 μL) of these solutions were added to a 96-well plate, followed by 195 μL of diluted S. aureus 10390 (10^6 CFUs/mL) to yield ca. 50 μM final concentrations. The plates were swirled for 1 h to ensure compound dissolution, incubated for 12 h at 37° C., and the absorbance at 595 nm was recorded using a plate reader. […] Actual MIC values were determined for lead compounds resynthesized in solution using an analogous procedure with solutions of known concentration (see).
Dose response growth inhibition curves were determined for each active compound (resynthesized in solution) against S. aureus 10390 (SA) and methicillin-resistant S. aureus 33591 (MRSA). […] MIC assays were performed in quadruplicate.

For the next test, the system named is S. aureus 10390. Briefly: Time-dependent bacterial killing curves. The conditions noted are these: 0.5x to 4x MIC, 0-6 h. In kind it is cell-based, Staphylococcus aureus. Here is the method: Solutions of compounds 4Bv, 6Ao, 9Cf, and linezolid were prepared in DMSO over a range of concentrations. […] At 0, 2, 4, and 6 h time points, […] samples were withdrawn from the test tubes, diluted into 10 mL of LB broth in a test tube, and swabbed in duplicate on agar plates to determine CFUs. These plates were incubated at 37° C. for 24 h, after which time the colonies were counted visually. […] Instead, 200 μL was removed from the test tube and directly swabbed on the agar plates.

Test [2] has as its system B. subtilis subsp. spizizenii ATCC 6633. Briefly: MIC determination, species selectivity. In kind it is cell-based. The settings on record: Bacillus subtilis, ATCC6633; authentic sample, only trans isomers of chalcones; error reflects step size. Here is the method: (§1) Each compound from Table 3 was tested for inhibitory activity at 2.5, 5, 7.5, 10, 15, 20, 25, and 30 μM in the susceptible overlaid strains: B. subtilis ATCC 6633, S. epidermidis ATCC 12228, and K. pneumoniae ATCC 4352. MIC assays were run in quadruplicate as described above (with shaking).

Test [3] relates to S. epidermidis ATCC 12228. Briefly: MIC determination, species selectivity. The settings on record: Staphylococcus epidermidis, ATCC12228; authentic sample, only trans isomers of chalcones; error reflects step size. Type of test: cell-based. Here is the method:
as §1

The test system of test [4] is S. aureus ATCC 10390. Briefly: Agar overlay TTC assay. In kind it is cell-based, Staphylococcus aureus. The settings on record: macroarray copies, 15 mL agar. An excerpt:
To take advantage of the spatially-addressed nature of the macroarray format, an agar overlay assay was employed that utilizes TTC (triphenyl tetrazolium chloride) as a visualization agent (FIG. 2[…].; Lu, A. T.; Solas, D. W.; Gore, […].; Coffin, […].; Wang, […].; Look, G. C.; Campbell, […]. Antimicrob. Agents Chemother. 1998, 1447-1453. Unfortunately, during macroarray synthesis the planarity of the support is not fully maintained, and small wrinkles develop in this particular assay. This problem was solved by using an adaptation of the common Western Blot technique to copy the macroarray members from the support to fresh wrinkle-free sheets while maintaining the spatially-addressed nature. This transfer can be completed in 90 seconds and four copies can be made at a time, however to date, it is applicable only for smaller macroarrays (6 cm×6 cm, 16 spots). The full macroarray was easily divided into these dimensions. The copies allowed for replicates to be made, and the original, which cannot be used in the assay, is used to validate the compounds by LCMS. As an added feature, the sensitivity of the assay was tuned by simply changing the amount of agar applied to the array. The copies generated in the assay can also be easily used to screened against multiple organisms. […] This assay format also took advantage of the spatially addressed nature of the arrays (FIG. 2C). […]

From patent publication US8227616B2, “Cyanopyridine antibacterial agents and methods of use thereof” (Wisconsin Alumni Research Foundation, priority 2006, dated 2012) come the findings set out here.

The structures appear in SMILES notation. In brackets after ≈: the same amount, converted by molar mass. Like-named read-outs stand apart in the source and are kept apart here.

A word on the MIC: it is the lowest concentration that inhibits growth of the organism.

As for `O=C(/C=C/c1cc(C(F)(F)F)cc(C(F)(F)F)c1)c1cccc(O)c1` [Compound 4Bv, 3′-hydroxy-3,5-bis(trifluoromethyl)chalcone], the MIC in the test with S. aureus ATCC 10390 [1] (Table 2, authentic sample synthesized according to standard techniques, read-out: observed MIC) stood at 3.3 ± 0.3 µM (≈ 1.19 µg/mL); with S. aureus ATCC 10390 [1] (Table 3, authentic sample, only trans isomers of chalcones, error reflects step size in the serial dilutions, read-out: S. aureus MIC) it was 3.5 ± 0.5 µM (≈ 1.26 µg/mL); in test [2], 8.8 ± 1.2 µM (≈ 3.17 µg/mL); in test [3], 3.8 ± 1.2 µM (≈ 1.37 µg/mL). Besides, in the test on S. aureus ATCC 10390 [1] (values quoted in killing-curve protocol, unit not given), the “MIC against S. aureus 10390” value is recorded as “ca. 3.5”. Also, in the test with S. aureus 10390, the “mode of activity (bacteriostatic or bactericidal)” value is on record as “bacteriostatic”. The “relative activity in agar overlay TTC assay” value in the test with S. aureus ATCC 10390 [4] is listed as “most active”.
